In publication PMC10794137, “A new antibiotic traps lipopolysaccharide in its intermembrane transporter” (Nature, 2024):

Tests used:
[1] = target: T1, E. coli LptB2FGC (Escherichia coli, UniProt P0ADC6+P0AF98); experiment: LPS release assay, E. coli LptB2FGC; assay type: biochemical; conditions: wild-type E. coli LptB2FGC, 60 min
T1 construct: made in house
Method: The amounts of release of LPS from proteoliposomes to LptA were measured as previously described[20]. Assays used 60% proteoliposomes (by volume) in a solution containing 50 mM Tris-HCl (pH 8.0), 500 mM NaCl, 10% glycerol and 2 µM LptA^I36pBPA. Reaction mixtures were incubated with drug for 10 min at room temperature, as applicable. Reactions were then initiated by the addition of ATP and MgCl2 (final concentrations of 5 mM and 2 mM, respectively) and proceeded at 30 °C. Aliquots (25 µl) were removed from the reaction mixtures and irradiated with ultraviolet (UV) light (365 nm) on ice for 10 min using a B-100AP lamp (Fisher Scientific).

[2] = test system: LptB2F^E249KGC; experiment: LPS release assay, LptB2F(E249K)GC; assay type: biochemical, Acinetobacter baylyi; conditions: LptF E249K complex, E. coli LPS
Method: Proteoliposomes were prepared as described previously. Aqueous E. coli polar lipid extract (Avanti Polar Lipids) (30 mg ml^−1) and aqueous LPS from E. coli EH100 (Ra mutant; Sigma) (2 mg ml^−1) were sonicated briefly for homogenization. For experiments testing the effect of LPS structure, we used LPS isolated from either GKM374 (BL21DE3 eptA::catR arnA::kanR eptC::gentR) or TXM418 (BL21DE3 eptA::catR arnA::FRT eptB::gentR lpxM::kanR) as described previously. A mixture of 20 mM Tris-HCl (pH 8.0), 150 mM NaCl, 7.5 mg ml^−1 of E. coli polar lipids, 0.5 mg ml^−1 of LPS and 0.25% DDM was prepared and kept on ice for 10 min. Purified LptB2FGC or LptB2FG was added to a final concentration of 0.86 μM and the mixture was left on ice for 20 min. The mixture was diluted 100-fold with cold 20 mM Tris-HCl (pH 8.0) and 150 mM NaCl and kept on ice for 20 min. The proteoliposomes were pelleted (300,000g, 2 h, 4 °C), resuspended in 20 mM Tris-HCl (pH 8.0) and 150 mM NaCl, diluted 100× and centrifuged (300,000g, 2 h, 4 °C). The pellets were resuspended in a mixture of 20 mM Tris-HCl (pH 8.0), 150 mM NaCl and 10% glycerol (250 μl per 100 μl of the original predilution solution), homogenized by sonication, flash frozen and stored at −80 °C until use.
The amounts of release of LPS from proteoliposomes to LptA were measured as previously described. […]

T1 sequence (P0AF98 whole entry): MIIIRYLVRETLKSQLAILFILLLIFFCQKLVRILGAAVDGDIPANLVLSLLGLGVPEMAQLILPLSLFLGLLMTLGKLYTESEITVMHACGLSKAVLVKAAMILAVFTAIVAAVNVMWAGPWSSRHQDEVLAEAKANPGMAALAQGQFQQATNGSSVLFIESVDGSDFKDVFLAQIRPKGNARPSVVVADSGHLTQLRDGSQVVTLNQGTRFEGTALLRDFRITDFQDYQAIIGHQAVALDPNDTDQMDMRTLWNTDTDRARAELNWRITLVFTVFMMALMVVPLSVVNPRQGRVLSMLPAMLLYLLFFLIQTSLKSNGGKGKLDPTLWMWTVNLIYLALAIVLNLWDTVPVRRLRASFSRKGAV
T1 sequence (P0ADC6 whole entry): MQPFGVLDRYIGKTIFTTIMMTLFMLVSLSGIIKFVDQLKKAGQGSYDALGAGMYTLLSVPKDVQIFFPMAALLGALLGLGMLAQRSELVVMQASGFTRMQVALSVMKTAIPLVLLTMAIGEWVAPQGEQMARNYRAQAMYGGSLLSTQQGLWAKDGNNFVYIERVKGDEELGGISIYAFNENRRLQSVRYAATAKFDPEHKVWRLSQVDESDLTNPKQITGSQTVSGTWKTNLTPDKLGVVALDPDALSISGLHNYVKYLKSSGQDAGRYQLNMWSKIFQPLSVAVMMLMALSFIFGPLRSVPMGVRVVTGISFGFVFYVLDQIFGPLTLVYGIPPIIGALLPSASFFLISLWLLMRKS
T1 sequence (P0A9V1 whole entry partner): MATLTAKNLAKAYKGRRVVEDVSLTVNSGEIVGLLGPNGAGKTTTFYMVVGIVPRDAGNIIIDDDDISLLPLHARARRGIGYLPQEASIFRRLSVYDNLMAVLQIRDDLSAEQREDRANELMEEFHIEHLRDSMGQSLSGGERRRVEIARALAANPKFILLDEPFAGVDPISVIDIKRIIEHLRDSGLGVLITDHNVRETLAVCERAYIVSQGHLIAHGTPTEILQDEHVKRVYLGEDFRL
T1 sequence (P0ADV9 whole entry partner): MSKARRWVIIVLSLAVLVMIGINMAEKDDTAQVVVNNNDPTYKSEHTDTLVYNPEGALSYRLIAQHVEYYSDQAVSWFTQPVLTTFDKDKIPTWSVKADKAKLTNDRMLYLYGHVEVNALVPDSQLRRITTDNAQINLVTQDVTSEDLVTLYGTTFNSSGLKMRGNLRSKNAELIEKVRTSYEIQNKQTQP

Compound | Inhibition of LPS transport to LptA [1] | Inhibition of LPS release to LptA [2]
CN1C(=O)[C@H](CCCCN)NC(=O)[C@H](CCCN)NCc2cccnc2Sc2cccc(-c3ccc(C(=O)O)cc3)c2CNC(=O)[C@@H]1Cc1c[nH]c2ccccc12 [Compound 2, Zosurabalpin] | does not inhibits LPS transport | –
CN1C(=O)[C@H](CCCCN)NC(=O)[C@H](CCCN)NCc2cccnc2Sc2c(Cl)ccc(-c3ccc(N)nc3)c2CNC(=O)[C@@H]1Cc1c[nH]c2ccccc12 [Compound 1] | – | did not block LPS release
